The text below walks through data of patent US20220249607A1, “Method of treatment of degenerative diseases caused by membrane channel-forming peptides fragments” (Zarbio, priority 2021, published 2022).

Entries after “also recorded” stand apart in the source; their conditions may differ. Read-outs that look alike come from different tables or passages of the source. Bounds are passed on as bounds.

Series [1] deals with lysosomes of cells loaded with Lucifer Yellow. The conditions noted are these: 20 hours incubation; Ji, Miranda et al. 2002; cited from earlier work.
Series [2] is described as follows: Flow cytometric permeabilization of negatively charged liposomes to calcium. The note with it: for permeabilization of negatively charged liposomes to calcium: phosphatidylserine liposomes, Fluo-3, flow cytometry. From the text:
To improve the quantitative aspect of studying the permeabilization of liposomes by […], we developed a flow cytometric technique which allowed us to estimate the number of channel-forming units in the solutions of peptide (Zaretsky and Zaretskaia 2020). This number appears extremely small compared to the total amount of peptide. In model conditions, one channel is formed out of approximately 10^12 molecules of Aβ25-35. The low ratio of channels created by the peptide would not allow for the studying of channel formation using typical methods of protein biology, such as spectroscopy or NMR, for the reason that the signal of interest being too low. Even though the proportion of channels is small, when the peptide was added in micromolar concentrations, thousands of permeabilized vesicles could be observed, which makes the power of channel formation biologically relevant.
(§1) The figure is a composite of data which was presented and analyzed in detail in (Zaretsky and Zaretskaia 2020, Zaretsky and Zaretskaia 2020). Liposomes (400 nm) were made of either phosphatidylserine (A-E, negatively charged lipid) or phosphatidylcholine (F-H, neutral lipid) with added DiD and were extruded in the Ca-free buffer containing 1 mM Fluo-3. After the addition of calcium, aliquots of peptide were added. Ionomycin was used as a positive control. Fluorescence of liposomes was analyzed using a flow cytometer. Each dot at the graph represent a single liposome registered in the flow. The intensity of DiD fluorescence characterizes the amount of membrane material in the liposome, while the fluorescence of Fluo-3 depends on the intraliposomal presence of calcium. […] The liposomes inside rectangle (area R1) are permeabilized, and the number of liposomes which were counted to be within the area is shown.

The conditions of series [3]: cited from earlier work.
Series [4] is described as follows: Flow cytometric permeabilization of neutral liposomes to calcium. The note with it: phosphatidylcholine liposomes, Fluo-3, flow cytometry. The method, then: as §1
A general note: A flow cytometer gives signals particle by particle.

Series [5] relates to Aβ-induced apoptosis in the brain. The note with it: rat brain, cited from earlier work; for effect on Aβ-induced apoptosis (TUNEL) / effect on accumulation of Aβ immunoreactivity / amyloid: simultaneous i.c.v. infusion with Aβ; for effect on apoptosis by the inhibitor itself (spontaneous apoptosis): without Aβ, TUNEL.
A further series concerns the target amyloid channels (Homo sapiens, UniProt P05067). The note with it: cited from earlier work.
The test system of series [6] is 15 cells derived from pancreatic islets of Langerhans. The note with it: cited from earlier work; for effect on beta-amyloid-induced drop in cell viability: MTT, stated for both cell lines.
Another series concerns Aβ1-42 toxicity. The conditions noted are these: cited from earlier work.
Series [7] has as its system 15 cells derived from pancreatic islets of Langerhans. The note with it: cited from earlier work.
The test system of series [8] is Aβ1-42-induced drop of cell survival. The note with it: Tizon, Ribe et al. 2010; cited from earlier work.
Setting [9] is: study of Aksenov, Aksenova et al. 1996.

Sequence of amyloid channels (P05067 672-713 limits assumed): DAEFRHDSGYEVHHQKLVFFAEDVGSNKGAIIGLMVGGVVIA

Aβ1-42: full-length amyloid peptide: in [1], the “pattern of Lucifer Yellow fluorescence in cells (lysosomal permeabilization)” value was “diffuse intracellular pattern of fluorescence”. In addition, in series [2], the “permeabilization of negatively charged liposomes to calcium” value was “ineffective in the permeabilization of the membranes; also recorded: does not permeabilize liposomal membranes”.
Consider “Aβ25-35: positively charged short channel-forming fragment of beta-amyloid (GSNKGAIIGLM; Amyloid-beta protein 42; UniProt P05067 696-706, looked up, fragment)”, for which the “percentage of channels with a conductance” value in series [3] (acidic pH (pH 5.0), 20 μM peptide) is recorded as “more than 30%”. For the same molecule, the “conductance of formed channels” value in series [3] (upper end of conductance) is reported as “up to 1 nS”. Besides, in series [4], the “permeabilization of neutral liposomes to calcium” value is “does not permeabilize liposomes; also recorded: not permeabilized”. The “number of peptide molecules out of which one channel is formed” value in series [2] (model conditions) is given as “approximately 10^12 molecules”. In series [2], the “permeabilization of negatively charged liposomes to calcium” value is on record as “creates multiple liposomes permeable to calcium”.
As for `CC(=O)N[C@@H](CC(C)C)C(=O)N[C@@H](CC(C)C)C(=O)N[C@H](C=O)CCCNC(=N)N` [leupeptin], in series [5], the “effect on Aβ-induced apoptosis (TUNEL)” value was “promoted apoptosis”, the “effect on accumulation of Aβ immunoreactivity / amyloid” value is given as “promoted” and the “effect on apoptosis by the inhibitor itself (spontaneous apoptosis)” value is recorded as “tends to increase apoptosis by itself”.
On to “Aβ22-35: longer beta-amyloid fragment without positive overall charge, non-channel-forming (EDVGSNKGAIIGLM; Amyloid-beta protein 42; UniProt P05067 693-706, looked up, fragment)”, for which the “permeabilization of negatively charged liposomes to calcium” value in series [2] is reported as “does not create a noticeable number of channels; also recorded: does not permeabilize liposomes”.
Take `C[C@H](CCC(=O)O)C[C@H](C)C[C@H](C)C(=O)/C=C(\O)[C@H](C)C[C@H](C)C/C=C/[C@@H](C)[C@@H](O)[C@@H](C)[C@@H](O)C[C@@H]1CC[C@@](C)([C@H]2CC[C@@](C)([C@@H](C)O)O2)O1` [ionomycin]: in series [4], the “permeabilization of neutral liposomes to calcium” value was “permeabilizes thousands of liposomes”. Moreover, in [2], the “permeabilization of negatively charged liposomes to calcium” value is on record as “permeabilizes liposomes”.
In the case of `NC(CO)(CO)CO` [tromethamine], at amyloid channels (channels <400 pS), the “blockade of smaller amyloid channels” value is recorded as “effectively blocked”. The “blockade of giant amyloid channels” value on amyloid channels (super-high conductance channels >1 nS) is on record as “less effective”.
In the case of aprotinin, in series [5], the “effect on Aβ-induced apoptosis (TUNEL)” value is recorded as “prevented Aβ-induced apoptosis”, the “effect on accumulation of Aβ immunoreactivity / amyloid” value was “did not exacerbate intracellular accumulation of amyloid” and the “effect on apoptosis by the inhibitor itself (spontaneous apoptosis)” value is “tends to decrease even spontaneously occurring apoptosis”.

B1: α1-anti-chymotrypsin (protein, UniProt P01011 24-423, looked up)
Alpha-1-antichymotrypsin: HPNSPLDEENLTQENQDRGTHVDLGLASANVDFAFSLYKQLVLKAPDKNVIFSPLSISTALAFLSLGAHNTTLTEILKGLKFNLTETSEAEIHQSFQHLLRTLNQSSDELQLSMGNAMFVKEQLSLLDRFTEDAKRLYGSEAFATDFQDSAAAKKLINDYVKNGTRGKITDLIKDLDSQTMMVLVNYIFFKAKWEMPFDPQDTHQSRFYLSKKKWVMVPMMSLHHLTIPYFRDEELSCTVVELKYTGNASALFILPDQDKMEEVEAMLLPETLKRWRDSLEFREIGELYLPKFSISRDYNLNDILLQLGIEEAFTSKADLSGITGARNLAVSQVVHKAVLDVFEEGTEASAATAVKITLLSALVETRTIVRFNRPFLMIIVPTDTQNIFFMSKVTNPKQA
For the molecule B1, the entries for the “effect on beta-amyloid-induced drop in cell viability” value in series [6] and in [6] (listed as α1-anti-chymotrypsin) were “can protect against Aβ-induced drop in cell viability” and “prevented”, respectively. For the same molecule, the “effect of further increase of concentration on protection against beta-amyloid” value in [6] (above optimal dose, both cell lines) was “disappearance of protection”. For the same molecule, the “protection against beta-amyloid-induced drop in cell viability” value in series [6] (in some conditions, stated for both cell lines (15 cells, cortical cultures)) is recorded as not above 100%. Besides, the “effect on Aβ1-42 toxicity” value in the series with Aβ1-42 toxicity (setting [9]) is “attenuated Aβ1-42 toxicity”. Besides, in the series with Aβ1-42 toxicity (setting [9]), the “effect on fibril formation” value was “without affecting fibril formation”. In the series with Aβ1-42 toxicity (study of Ma, Brewer et al. 1996), the “effect on Aβ toxicity” value is “not effective”. The “effect on amylin-induced drop in cell viability” value is given as “prevent amylin-induced cellular toxicity” in series [7] (MTT, listed as anti-chymotrypsin) and “prevented” in series [7] (MTT, listed as α1-anti-chymotrypsin). For the same molecule, the protection against amylin in [7] (MTT) is given as less than 100%. In addition, in [7] (above optimal dose), the “effect of further increase of concentration on protection against amylin” value was “significantly decreased the protective effect”.

B2: cystatin C (protein, UniProt P01034 27-146, looked up)
Cystatin-C: SSPGKPPRLVGGPMDASVEEEGVRRALDFAVGEYNKASNDMYHSRALQVVRARKQIVAGVNYFLDVELGRTTCTKTQPNLDNCPFHDQPHLKRKAFCSFQIYAVPWQGTMTLSKSTCQDA
For the molecule B2, in series [8], the “effect on drop of cell survival induced by Aβ1-42” value is “prevented the drop of cell survival”.
